Results taken from ChEMBL document CHEMBL4043169, “Discovery of potent and selective CDK8 inhibitors through FBDD approach” (Bioorg Med Chem Lett, 2017).

Columns and labels:
[1] = target: CDK8/Cyclin C (Homo sapiens, UniProt P49336); test: Inhibition of recombinant full length His-tagged human CDK8/Cyclin C expressed in baculovirus expression system using Ulight-GS peptide as substrate after 30 mins in presence of ATP by TR-FRET assay
[2] = system: AGS; test: Antiproliferative activity against human AGS cells after 72 hrs by MTT assay
[3] = Clearance in mouse at 5 mg/kg, iv; format: ADME, organism-based; conditions: in vivo
[4] = Cmax in mouse at 5 mg/kg, iv; format: ADME, organism-based; design: dose 5 mg/kg, route intravenous; conditions: in vivo
[5] = Cmax in mouse at 25 mg/kg, po; format: ADME, organism-based; design: dose 25 mg/kg, route oral; conditions: in vivo
[6] = Tmax in mouse at 25 mg/kg, po; format: ADME, organism-based; conditions: in vivo
[7] = Half life in mouse at 5 mg/kg, iv; format: ADME, organism-based; conditions: in vivo
[8] = Half life in mouse at 25 mg/kg, po; format: ADME, organism-based; conditions: in vivo
[9] = Volume of distribution at steady state in mouse at 5 mg/kg, iv; format: ADME, organism-based; conditions: in vivo, read-out: Vdss
[10] = Oral bioavailability in mouse at 25 mg/kg; format: ADME, organism-based; conditions: in vivo
[11] = target: Platelet-derived growth factor receptor alpha (Homo sapiens) (UniProt P16234); test: Inhibition of PDGFRalpha (unknown origin) at 1 uM relative to control
[12] = target: Vascular endothelial growth factor receptor 2 (Homo sapiens) (UniProt P35968); test: Inhibition of KDR (unknown origin) at 1 uM relative to control
[13] = target: Fibroblast growth factor receptor 1 (Homo sapiens) (UniProt P11362); test: Inhibition of FGFR1 (unknown origin) at 1 uM relative to control
[14] = target: Tyrosine-protein kinase JAK2 (Homo sapiens) (UniProt O60674); test: Inhibition of JAK2 (unknown origin) at 1 uM relative to control
[15] = species: Homo sapiens; test: Inhibition of P70S6K (unknown origin) at 1 uM relative to control
[16] = target: Calcium/calmodulin-dependent protein kinase type IV (Homo sapiens) (UniProt Q16566); test: Inhibition of CAMK4 (unknown origin) at 1 uM relative to control
[17] = target: Angiopoietin-1 receptor (Homo sapiens) (UniProt Q02763); test: Inhibition of TIE2 (unknown origin) at 1 uM relative to control
[18] = target: Mast/stem cell growth factor receptor Kit (Homo sapiens) (UniProt P10721); test: Inhibition of cKIT (unknown origin) at 1 uM relative to control
Sequence of Mast/stem cell growth factor receptor Kit (Homo sapiens) (P10721 whole entry): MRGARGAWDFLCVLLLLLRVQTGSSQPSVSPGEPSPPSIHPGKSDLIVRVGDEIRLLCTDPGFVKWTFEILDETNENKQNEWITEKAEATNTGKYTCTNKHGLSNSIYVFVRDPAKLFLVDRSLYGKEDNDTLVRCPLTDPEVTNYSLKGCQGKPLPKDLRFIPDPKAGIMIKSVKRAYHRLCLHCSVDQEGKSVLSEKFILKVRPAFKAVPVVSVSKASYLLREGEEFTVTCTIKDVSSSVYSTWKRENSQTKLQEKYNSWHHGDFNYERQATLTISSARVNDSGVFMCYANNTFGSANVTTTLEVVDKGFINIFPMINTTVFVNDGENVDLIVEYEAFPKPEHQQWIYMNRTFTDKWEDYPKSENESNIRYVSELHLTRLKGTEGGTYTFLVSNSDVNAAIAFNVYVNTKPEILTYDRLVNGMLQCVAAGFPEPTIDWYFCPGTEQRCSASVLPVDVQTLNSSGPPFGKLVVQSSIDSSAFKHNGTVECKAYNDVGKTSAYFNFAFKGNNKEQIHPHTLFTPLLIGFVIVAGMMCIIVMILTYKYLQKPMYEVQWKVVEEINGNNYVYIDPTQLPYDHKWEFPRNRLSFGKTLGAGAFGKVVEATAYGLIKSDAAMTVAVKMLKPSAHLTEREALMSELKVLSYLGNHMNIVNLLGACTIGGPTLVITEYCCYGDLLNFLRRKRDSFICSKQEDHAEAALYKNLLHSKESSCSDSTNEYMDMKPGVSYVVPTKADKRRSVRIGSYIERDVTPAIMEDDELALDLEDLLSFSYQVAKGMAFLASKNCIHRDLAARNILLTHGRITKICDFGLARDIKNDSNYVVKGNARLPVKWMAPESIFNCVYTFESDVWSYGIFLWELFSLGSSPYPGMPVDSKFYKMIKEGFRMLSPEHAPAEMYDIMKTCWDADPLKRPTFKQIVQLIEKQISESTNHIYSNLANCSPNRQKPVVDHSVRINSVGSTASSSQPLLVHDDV

[19] = target: Mitogen-activated protein kinase 14 (Homo sapiens) (UniProt Q16539); test: Inhibition of p38alpha (unknown origin) at 1 uM relative to control
Sequence of Mitogen-activated protein kinase 14 (Homo sapiens) (Q16539 whole entry): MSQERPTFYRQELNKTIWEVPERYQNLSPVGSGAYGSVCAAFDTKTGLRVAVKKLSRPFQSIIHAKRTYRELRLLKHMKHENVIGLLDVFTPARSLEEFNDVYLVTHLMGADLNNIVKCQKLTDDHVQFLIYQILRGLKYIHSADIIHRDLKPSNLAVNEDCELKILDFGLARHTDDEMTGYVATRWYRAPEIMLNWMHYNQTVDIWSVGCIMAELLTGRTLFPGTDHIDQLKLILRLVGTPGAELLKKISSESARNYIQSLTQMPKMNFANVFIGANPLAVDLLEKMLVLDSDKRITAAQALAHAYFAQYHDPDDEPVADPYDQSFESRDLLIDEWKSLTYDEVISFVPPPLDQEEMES

[20] = target: Serine/threonine-protein kinase PAK 4 (Homo sapiens) (UniProt O96013); test: Inhibition of PAK4 (unknown origin) at 1 uM relative to control
[21] = target: Serine/threonine-protein kinase Sgk1 (Homo sapiens) (UniProt O00141); test: Inhibition of SGK (unknown origin) at 1 uM relative to control
[22] = target: Tyrosine-protein kinase ABL1 (Homo sapiens) (UniProt P00519); test: Inhibition of ABL (unknown origin) at 1 uM relative to control
[23] = target: Inhibitor of nuclear factor kappa-B kinase subunit beta (Homo sapiens) (UniProt O14920); test: Inhibition of IKKbeta (unknown origin) at 1 uM relative to control
[24] = target: Proto-oncogene tyrosine-protein kinase Src (Homo sapiens) (UniProt P12931); test: Inhibition of SRC (unknown origin) at 1 uM relative to control
Sequence of Proto-oncogene tyrosine-protein kinase Src (Homo sapiens) (P12931 2-536 limits assumed): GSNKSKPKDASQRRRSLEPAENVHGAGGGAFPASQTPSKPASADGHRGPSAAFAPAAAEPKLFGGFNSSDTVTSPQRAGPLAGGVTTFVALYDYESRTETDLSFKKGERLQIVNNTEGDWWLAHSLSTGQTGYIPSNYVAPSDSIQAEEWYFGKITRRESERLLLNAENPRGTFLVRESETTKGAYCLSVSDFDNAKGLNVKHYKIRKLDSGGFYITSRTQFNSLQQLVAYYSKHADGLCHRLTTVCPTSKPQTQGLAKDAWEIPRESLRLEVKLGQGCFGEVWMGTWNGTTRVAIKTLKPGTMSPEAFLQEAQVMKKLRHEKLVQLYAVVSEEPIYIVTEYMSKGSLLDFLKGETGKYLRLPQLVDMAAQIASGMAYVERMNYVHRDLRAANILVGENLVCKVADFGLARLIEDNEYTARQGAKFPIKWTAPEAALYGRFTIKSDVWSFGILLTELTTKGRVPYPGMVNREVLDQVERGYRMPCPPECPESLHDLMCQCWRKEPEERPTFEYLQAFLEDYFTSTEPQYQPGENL

[25] = target: Tyrosine-protein kinase Lck (Homo sapiens) (UniProt P06239); test: Inhibition of LCK (unknown origin) at 1 uM relative to control
[26] = target: Ephrin type-A receptor 1 (Homo sapiens) (UniProt P21709); test: Inhibition of EPHA1 (unknown origin) at 1 uM relative to control
[27] = target: ALK tyrosine kinase receptor (Homo sapiens) (UniProt Q9UM73); test: Inhibition of ALK (unknown origin) at 1 uM relative to control
[28] = target: Epidermal growth factor receptor (Homo sapiens) (UniProt P00533); test: Inhibition of EGFR (unknown origin) at 1 uM relative to control
[29] = target: RAC-alpha serine/threonine-protein kinase (Homo sapiens) (UniProt P31749); test: Inhibition of AKT1 (unknown origin) at 1 uM relative to control
[30] = target: Insulin-like growth factor 1 receptor (Homo sapiens) (UniProt P08069); test: Inhibition of IGF1R (unknown origin) at 1 uM relative to control
[31] = target: Ribosomal protein S6 kinase alpha-1 (Homo sapiens) (UniProt Q15418); test: Inhibition of RSK1 (unknown origin) at 1 uM relative to control
[32] = target: Ribosomal protein S6 kinase alpha-2 (Homo sapiens) (UniProt Q15349); test: Inhibition of RSK2 (unknown origin) at 1 uM relative to control
[33] = target: Ribosomal protein S6 kinase alpha-5 (Homo sapiens) (UniProt O75582); test: Inhibition of MSK1 (unknown origin) at 1 uM relative to control
Sequence of Ribosomal protein S6 kinase alpha-5 (Homo sapiens) (O75582 whole entry, looked up): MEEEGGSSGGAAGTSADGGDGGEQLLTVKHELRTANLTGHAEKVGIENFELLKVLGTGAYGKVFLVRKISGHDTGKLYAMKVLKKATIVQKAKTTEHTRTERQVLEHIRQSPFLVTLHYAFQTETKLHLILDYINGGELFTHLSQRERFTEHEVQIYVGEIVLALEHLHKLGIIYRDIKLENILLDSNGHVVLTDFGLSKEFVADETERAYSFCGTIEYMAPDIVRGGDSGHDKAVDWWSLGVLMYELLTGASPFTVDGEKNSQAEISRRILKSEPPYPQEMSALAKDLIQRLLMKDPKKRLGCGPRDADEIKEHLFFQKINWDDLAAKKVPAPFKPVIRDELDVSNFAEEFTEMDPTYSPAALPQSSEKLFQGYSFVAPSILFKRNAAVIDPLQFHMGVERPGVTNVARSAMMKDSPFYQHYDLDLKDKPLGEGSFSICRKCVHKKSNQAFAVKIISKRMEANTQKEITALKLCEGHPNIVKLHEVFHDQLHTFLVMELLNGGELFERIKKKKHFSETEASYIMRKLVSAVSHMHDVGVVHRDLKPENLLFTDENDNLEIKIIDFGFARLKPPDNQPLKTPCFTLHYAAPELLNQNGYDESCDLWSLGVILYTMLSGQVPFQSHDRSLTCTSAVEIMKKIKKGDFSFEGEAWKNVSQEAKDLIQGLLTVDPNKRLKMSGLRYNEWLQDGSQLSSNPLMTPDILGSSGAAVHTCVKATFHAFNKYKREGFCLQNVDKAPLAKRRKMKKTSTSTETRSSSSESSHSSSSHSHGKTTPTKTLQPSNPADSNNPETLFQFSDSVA

[34] = target: Ribosomal protein S6 kinase alpha-4 (Homo sapiens) (UniProt O75676); test: Inhibition of MSK2 (unknown origin) at 1 uM relative to control
[35] = target: Serine/threonine-protein kinase pim-1 (Homo sapiens) (UniProt P11309); test: Inhibition of PIM1 (unknown origin) at 1 uM relative to control
[36] = target: Protein kinase C alpha type (Homo sapiens) (UniProt P17252); test: Inhibition of PKCalpha (unknown origin) at 1 uM relative to control
[37] = target: Rho-associated protein kinase 1 (Homo sapiens) (UniProt Q13464); test: Inhibition of ROCK1 (unknown origin) at 1 uM relative to control
[38] = target: Glycogen synthase kinase-3 beta (Homo sapiens) (UniProt P49841); test: Inhibition of Gsk3beta (unknown origin) at 1 uM relative to control
[39] = target: Mitogen-activated protein kinase 9 (Homo sapiens) (UniProt P45984); test: Inhibition of JNK2 (unknown origin) at 1 uM relative to control
[40] = target: Serine/threonine-protein kinase MARK1 (Homo sapiens) (UniProt Q9P0L2); test: Inhibition of MARK1 (unknown origin) at 1 uM relative to control
[41] = target: Serine/threonine-protein kinase 4 (Homo sapiens) (UniProt Q13043); test: Inhibition of MST1 (unknown origin) at 1 uM relative to control
[42] = target: Casein kinase I isoform delta (Homo sapiens) (UniProt P48730); test: Inhibition of CK1delta (unknown origin) at 1 uM relative to control
[43] = target: Aurora kinase B (Homo sapiens) (UniProt Q96GD4); test: Inhibition of AurB (unknown origin) at 1 uM relative to control
Sequence of Aurora kinase B (Homo sapiens) (Q96GD4 whole entry): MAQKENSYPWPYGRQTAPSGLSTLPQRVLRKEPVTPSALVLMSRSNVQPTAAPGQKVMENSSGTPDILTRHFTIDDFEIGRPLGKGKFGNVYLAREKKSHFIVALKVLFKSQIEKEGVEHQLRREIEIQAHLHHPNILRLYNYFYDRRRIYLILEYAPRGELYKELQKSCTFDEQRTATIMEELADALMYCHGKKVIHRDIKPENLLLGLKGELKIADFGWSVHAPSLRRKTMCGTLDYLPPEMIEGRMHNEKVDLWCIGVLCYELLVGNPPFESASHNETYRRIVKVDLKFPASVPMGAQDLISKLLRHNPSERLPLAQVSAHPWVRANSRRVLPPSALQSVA

[44] = target: Aurora kinase A (Homo sapiens) (UniProt O14965); test: Inhibition of AurA (unknown origin) at 1 uM relative to control
[45] = target: 5'-AMP-activated protein kinase catalytic subunit alpha-1 (Homo sapiens) (UniProt Q13131); test: Inhibition of AMPKa1 (unknown origin) at 1 uM relative to control
[46] = target: Receptor-type tyrosine-protein kinase FLT3 (Homo sapiens) (UniProt P36888); test: Inhibition of FLT3 (unknown origin) at 1 uM relative to control
[47] = target: Hepatocyte growth factor receptor (Homo sapiens) (UniProt P08581); test: Inhibition of cMET (unknown origin) at 1 uM relative to control
[48] = target: Interleukin-1 receptor-associated kinase 1 (Homo sapiens) (UniProt P51617); test: Inhibition of IRAK1 (unknown origin) at 1 uM relative to control
[49] = target: Mitogen-activated protein kinase 3 (Homo sapiens) (UniProt P27361); test: Inhibition of ERK1 (unknown origin) at 1 uM relative to control
[50] = target: Receptor tyrosine-protein kinase erbB-2 (Homo sapiens) (UniProt P04626); test: Inhibition of HER2 (unknown origin) at 1 uM relative to control
Sequence of Receptor tyrosine-protein kinase erbB-2 (Homo sapiens) (P04626 whole entry): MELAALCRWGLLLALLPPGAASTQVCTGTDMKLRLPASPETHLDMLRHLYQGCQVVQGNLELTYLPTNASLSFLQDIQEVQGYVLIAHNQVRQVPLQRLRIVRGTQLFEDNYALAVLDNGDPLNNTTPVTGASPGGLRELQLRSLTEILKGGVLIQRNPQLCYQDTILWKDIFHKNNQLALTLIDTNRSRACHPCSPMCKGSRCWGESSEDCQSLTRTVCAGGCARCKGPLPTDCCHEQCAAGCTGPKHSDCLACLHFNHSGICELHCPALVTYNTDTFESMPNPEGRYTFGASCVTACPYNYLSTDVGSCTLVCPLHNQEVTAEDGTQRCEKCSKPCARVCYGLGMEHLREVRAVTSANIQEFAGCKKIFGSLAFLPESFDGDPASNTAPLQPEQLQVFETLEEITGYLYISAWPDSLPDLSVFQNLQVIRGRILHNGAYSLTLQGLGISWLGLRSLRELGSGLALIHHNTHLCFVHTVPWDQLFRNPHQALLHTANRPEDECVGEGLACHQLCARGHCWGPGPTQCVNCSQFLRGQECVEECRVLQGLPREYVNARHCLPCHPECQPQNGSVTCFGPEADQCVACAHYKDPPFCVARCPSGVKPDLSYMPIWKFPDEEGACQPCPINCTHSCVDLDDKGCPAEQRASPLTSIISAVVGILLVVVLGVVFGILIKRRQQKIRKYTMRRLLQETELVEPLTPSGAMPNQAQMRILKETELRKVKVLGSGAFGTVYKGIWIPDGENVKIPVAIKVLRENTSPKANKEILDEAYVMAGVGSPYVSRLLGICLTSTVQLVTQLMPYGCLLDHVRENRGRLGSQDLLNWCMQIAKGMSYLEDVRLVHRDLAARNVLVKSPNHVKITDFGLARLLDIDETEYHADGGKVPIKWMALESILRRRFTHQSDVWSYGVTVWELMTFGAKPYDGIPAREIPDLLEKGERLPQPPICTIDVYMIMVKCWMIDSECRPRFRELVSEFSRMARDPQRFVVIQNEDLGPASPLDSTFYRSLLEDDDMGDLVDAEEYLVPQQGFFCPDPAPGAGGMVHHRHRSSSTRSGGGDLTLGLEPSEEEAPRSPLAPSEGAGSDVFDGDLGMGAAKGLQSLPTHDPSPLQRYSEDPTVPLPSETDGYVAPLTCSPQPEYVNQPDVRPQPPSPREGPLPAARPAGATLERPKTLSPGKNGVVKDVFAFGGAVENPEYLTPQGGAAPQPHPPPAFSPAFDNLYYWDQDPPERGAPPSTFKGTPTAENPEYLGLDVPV

[51] = target: Cyclin-dependent kinase 2 (Homo sapiens) (UniProt P24941); test: Inhibition of CDK2 (unknown origin) at 1 uM relative to control
[52] = target: Cyclin-dependent kinase 6 (Homo sapiens) (UniProt Q00534); test: Inhibition of CDK6 (unknown origin) at 1 uM relative to control
[53] = target: 3-phosphoinositide-dependent protein kinase 1 (Homo sapiens) (UniProt O15530); test: Inhibition of PDK1 (unknown origin) at 1 uM relative to control

Sequence of CDK8/Cyclin C (P49336 whole entry): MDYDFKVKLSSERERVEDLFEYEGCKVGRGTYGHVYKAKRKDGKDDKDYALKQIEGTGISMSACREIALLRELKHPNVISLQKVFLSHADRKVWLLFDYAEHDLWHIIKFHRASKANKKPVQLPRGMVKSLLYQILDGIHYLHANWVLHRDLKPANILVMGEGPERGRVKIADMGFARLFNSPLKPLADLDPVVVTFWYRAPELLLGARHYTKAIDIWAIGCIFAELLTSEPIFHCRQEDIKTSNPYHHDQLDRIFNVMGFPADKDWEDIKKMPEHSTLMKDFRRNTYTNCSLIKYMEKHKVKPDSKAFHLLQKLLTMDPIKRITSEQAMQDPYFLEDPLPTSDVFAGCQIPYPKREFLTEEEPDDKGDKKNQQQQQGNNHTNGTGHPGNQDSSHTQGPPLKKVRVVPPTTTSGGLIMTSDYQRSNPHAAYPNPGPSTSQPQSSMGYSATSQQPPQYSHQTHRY
Sequence of CDK8/Cyclin C (P24863 whole entry, further chain): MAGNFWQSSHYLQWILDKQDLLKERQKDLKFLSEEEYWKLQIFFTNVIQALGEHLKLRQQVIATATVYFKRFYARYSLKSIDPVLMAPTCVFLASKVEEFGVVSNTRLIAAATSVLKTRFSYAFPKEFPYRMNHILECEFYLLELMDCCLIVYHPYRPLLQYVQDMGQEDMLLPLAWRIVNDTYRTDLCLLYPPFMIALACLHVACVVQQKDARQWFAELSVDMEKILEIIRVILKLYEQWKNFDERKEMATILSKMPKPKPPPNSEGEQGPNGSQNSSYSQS

Molecule NC(=O)c1cc(-c2ccncc2Br)c[nH]1 has an IC50 [1] of 37 nM.

N#Cc1cc(-c2ccncc2)c[nH]1 gave an IC50 [1] of 280 nM.

For Cc1[nH]c(C(N)=O)cc1-c1ccncc1, the IC50 [1] was 240 nM.

For CCc1cnccc1-c1c[nH]c(C#N)c1, the IC50 [1] was 4630 nM.

In the case of Cc1cnccc1-c1c[nH]c(C(N)=O)c1C, the IC50 [2] is reported as 1170 nM and the IC50 [1] is reported as 10 nM.

Molecule Cn1cc(-c2ccncc2)cc1C(N)=O has an IC50 [1] of 4950 nM.

For NC(=O)c1[nH]cc(-c2ccncc2)c1C(F)(F)F, the IC50 [2] was 270 nM, the IC50 [1] was 3 nM and the clearance [3] was 8.87 mL/min/kg. The Cmax [4] was 9940 ng/mL, the Cmax [5] was 12700 ng/mL and the Tmax [6] was 15 min. It also gave a half-life [7] of 50.4 min, a half-life [8] of 475 min and a Vd [9] of 0.49 L/kg. For the same molecule, the bioavailability [10] was 57.5%.

NC(=O)c1cc(-c2ccncc2Cl)c[nH]1 showed an IC50 [1] of 19 nM.

Work on CCc1c(-c2ccncc2)c[nH]c1C(N)=O yielded an IC50 [2] of 1120 nM and an IC50 [1] of 13 nM.

NC(=O)c1cc(-c2ccncc2)c(Cl)[nH]1 showed an IC50 [1] of 160 nM.

With Cc1cnccc1-c1c[nH]c(C(N)=O)c1 the IC50 [1] was 87 nM.

Molecule NC(=O)c1[nH]cc(-c2ccncc2)c1Cl has an IC50 [2] of 370 nM and an IC50 [1] of 5 nM.

NC(=O)c1cc(-c2ccnc(Cl)c2)c[nH]1 gave an IC50 [1] of 350 nM.

CNC(=O)c1cc(-c2ccncc2)c[nH]1 showed an IC50 [1] of 410 nM.

Cc1cc(-c2c[nH]c(C(N)=O)c2)ccn1 gave an IC50 [1] of 480 nM.

Molecule NC(=O)c1cc(-c2ccncc2)c[nH]1 has an IC50 [1] of 170 nM.

For Cc1c(-c2ccncc2)c[nH]c1C(N)=O, the IC50 [2] was 800 nM, the IC50 [1] was 8 nM and the inhibition [11] was < 20%. The inhibition [12] was < 20%, the inhibition [13] was < 20% and the inhibition [14] was < 20%. For the same molecule, the inhibition [15] was < 20%, the inhibition [16] was < 20% and the inhibition [17] was < 20%. The inhibition [18] was < 20%, the inhibition [19] was < 20% and the inhibition [20] was < 20%. The inhibition [21] was < 20%, the inhibition [22] was < 20% and the inhibition [23] was < 20%. The inhibition [24] was < 20%, the inhibition [25] was < 20% and the inhibition [26] was < 20%. For the same molecule, the inhibition [27] was < 20%, the inhibition [28] was < 20% and the inhibition [29] was < 20%. For the same molecule, the inhibition [30] was < 20%, the inhibition [31] was < 20% and the inhibition [32] was < 20%. The inhibition [33] was < 20%, the inhibition [34] was < 20% and the inhibition [35] was < 20%. For the same molecule, the inhibition [36] was < 20%, the inhibition [37] was < 20% and the inhibition [38] was < 20%. For the same molecule, the inhibition [39] was < 20%, the inhibition [40] was < 20% and the inhibition [41] was < 20%. The inhibition [42] was < 20%, the inhibition [43] was < 20% and the inhibition [44] was < 20%. The inhibition [45] was < 20%, the inhibition [46] was < 20% and the inhibition [47] was < 20%. For the same molecule, the inhibition [48] was < 20%, the inhibition [49] was < 20% and the inhibition [50] was < 20%. The inhibition [51] was < 20%, the inhibition [52] was < 20% and the inhibition [53] was < 20%.

Cc1cc(-c2c[nH]c(C(N)=O)c2C)ccn1 gave an IC50 [1] of 19 nM.

With NC(=O)c1cc(-c2ccncc2)cn1Cc1ccccc1 the IC50 [1] was 170 nM.
